Substitutions are numbered along the chain they refer to.
Legend:
FLT3 autoinhibited = target: T1, FLT3 autoinhibited (Homo sapiens, UniProt P36888); experiment: KINOMEscan KdElect competitive binding assay, autoinhibited FLT3; details: tosylate salt; average Kd; read-out: Binding Constant (Kd), FLT3 autoinhibited
T1 construct: host or cells: E. coli BL21-derived host (T7 phage) or HEK-293
T1 sequence (P36888 564-993 limits assumed): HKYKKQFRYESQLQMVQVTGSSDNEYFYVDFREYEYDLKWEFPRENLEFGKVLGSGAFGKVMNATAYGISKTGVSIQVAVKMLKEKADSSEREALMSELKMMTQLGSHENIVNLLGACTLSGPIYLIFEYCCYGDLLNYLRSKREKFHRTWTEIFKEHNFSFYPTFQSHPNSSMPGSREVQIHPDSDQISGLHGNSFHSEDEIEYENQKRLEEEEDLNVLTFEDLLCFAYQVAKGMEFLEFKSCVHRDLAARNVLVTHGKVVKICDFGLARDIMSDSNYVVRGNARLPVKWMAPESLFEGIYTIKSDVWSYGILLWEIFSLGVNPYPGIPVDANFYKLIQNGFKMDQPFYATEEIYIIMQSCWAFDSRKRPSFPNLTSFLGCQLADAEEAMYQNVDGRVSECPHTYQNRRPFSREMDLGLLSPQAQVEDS
Excerpt: (§1) Competitive binding assay.
(§2) The lysates were then centrifuged and filtered.

FLT3 ITD = target: T2, FLT3 ITD (Homo sapiens, UniProt P36888); experiment: Inhibition of FLT3-ITD phosphorylation by western blot in BaF3 cells transduced to express FLT3; format: cell-based; details: Ba/F3 FLT3-ITD cells, tosylate salt, read-out: IC50, inhibition of phosphorylation of the FLT3-ITD receptor
T2 sequence (P36888 1-993): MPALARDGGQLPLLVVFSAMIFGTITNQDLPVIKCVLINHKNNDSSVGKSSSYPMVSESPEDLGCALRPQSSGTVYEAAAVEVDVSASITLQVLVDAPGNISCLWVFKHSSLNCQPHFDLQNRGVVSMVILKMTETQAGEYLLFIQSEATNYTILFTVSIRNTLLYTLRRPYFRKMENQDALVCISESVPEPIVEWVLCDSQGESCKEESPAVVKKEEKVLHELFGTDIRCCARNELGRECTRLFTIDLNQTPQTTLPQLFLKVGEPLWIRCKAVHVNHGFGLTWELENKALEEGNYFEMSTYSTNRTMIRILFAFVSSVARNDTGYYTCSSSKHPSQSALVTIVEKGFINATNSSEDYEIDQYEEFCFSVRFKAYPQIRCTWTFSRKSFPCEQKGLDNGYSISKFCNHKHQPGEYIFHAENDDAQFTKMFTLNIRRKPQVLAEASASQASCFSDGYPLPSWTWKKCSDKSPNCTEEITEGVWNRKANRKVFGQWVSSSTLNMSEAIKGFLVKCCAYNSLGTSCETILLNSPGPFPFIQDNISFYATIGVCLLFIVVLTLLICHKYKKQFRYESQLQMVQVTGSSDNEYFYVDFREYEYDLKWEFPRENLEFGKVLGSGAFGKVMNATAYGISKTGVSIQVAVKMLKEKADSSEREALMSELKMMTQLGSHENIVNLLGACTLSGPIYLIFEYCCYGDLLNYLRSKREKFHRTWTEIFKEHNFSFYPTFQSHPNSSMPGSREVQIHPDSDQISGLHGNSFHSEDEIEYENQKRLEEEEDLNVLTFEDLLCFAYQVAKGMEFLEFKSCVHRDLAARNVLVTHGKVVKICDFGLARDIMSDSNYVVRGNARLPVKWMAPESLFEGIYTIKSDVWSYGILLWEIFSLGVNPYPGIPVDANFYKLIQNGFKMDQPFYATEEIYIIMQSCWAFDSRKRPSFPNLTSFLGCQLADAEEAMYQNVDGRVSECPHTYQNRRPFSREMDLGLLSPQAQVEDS
Experimental: The ability of the tosylate (toluenesulfonate) salt of CP-673,451 to inhibit phosphorylated FLT3 was determined using cell lines expressing FLT3-ITD, including Molm-13 (a human acute myeloid leukemia cell line) and BaF3 (bone marrow-derived pro-B-cell line) cells transduced to express FLT3. The effect was examined by western blot.

FLT3 (ITD, F691I) = target: T3, FLT3 (ITD, F691I) (Homo sapiens, UniProt P36888); experiment: KINOMEscan KdElect competitive binding assay, dual mutant FLT3 (ITD, F691I); details: tosylate salt; read-out: Kd, FLT3 (ITD, F691I) double mutant
T3 construct: fused on or other part: DNA tag / T7 phage display tag for qPCR detection
Excerpt: as §1, §2

[1] = system: Ba/F3 expressing FLT3-D835Y/ITD cells; experiment: Activity against Ba/F3 cells with FLT3-ITD and FLT3-D835Y mutation; format: cell-based; details: Mus musculus, BaF3; Ba/F3 FLT-ITD/D835Y cells; read-out: IC50 pFLT3 (text: decreased viability)
FLT3 wild type = target: T4, FLT3 wild type (Homo sapiens, UniProt P36888); experiment: KINOMEscan KdElect competitive binding assay, wild type FLT3; details: CP-673,451 as tosylate salt; read-out: Binding Constant (Kd), FLT3 wild type
T4 construct: host or cells: E. coli BL21-derived host (T7 phage) or HEK-293
T4 sequence (P36888 610-943 limits assumed): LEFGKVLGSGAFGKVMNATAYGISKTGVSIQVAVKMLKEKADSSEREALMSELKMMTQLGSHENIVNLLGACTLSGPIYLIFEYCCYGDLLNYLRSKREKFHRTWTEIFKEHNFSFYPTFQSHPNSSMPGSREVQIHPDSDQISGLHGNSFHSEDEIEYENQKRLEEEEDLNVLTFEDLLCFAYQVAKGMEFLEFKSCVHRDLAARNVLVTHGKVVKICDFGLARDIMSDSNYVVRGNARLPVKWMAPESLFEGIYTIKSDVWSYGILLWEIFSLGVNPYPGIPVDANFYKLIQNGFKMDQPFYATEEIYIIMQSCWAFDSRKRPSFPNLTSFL

FLT3 R834Q = target: T5, FLT3 R834Q (Homo sapiens, UniProt P36888, R834Q); experiment: KINOMEscan KdElect competitive binding assay, FLT3 R834Q; details: tosylate salt; read-out: Binding Constant (Kd), FLT3 R834Q
T5 construct: host or cells: E. coli BL21-derived host (T7 phage) or HEK-293
T5 sequence (P36888 610-943 R834Q limits assumed): T4 sequence (P36888 610-943 limits assumed) with R225Q
Excerpt: as §1, §2

Kd (FLT3 autoinhibited): 18 nM | IC50 (FLT3 ITD): 5.1 nM | Kd (FLT3 (ITD, F691I)): 0.18 nM | IC50 [1]: 23.8 nM | Kd (FLT3 wild type): 0.35 nM | Kd (FLT3 R834Q): 0.65 nM
Structure (SMILES): COCCOc1ccc2c(c1)ncn2-c1ccc2cccc(N3CCC(N)CC3)c2n1 [CP-673,451]
